The target in one test is T1, D2 receptor (Homo sapiens, UniProt P14416).
T1 construct: expressed in transfected cells
The test is described as follows: Agonist potency by [3H]thymidine incorporation (mitogenesis), D2. Conditions: [3H]thymidine incorporation; for Emax: >80% full agonist, read-out: D2 % Maxm Stim. It counts as cell-based. The method, then:
Potential as domaminergenic agonists was assayed by ^3H-thymidine incorporation by standard techniques.
The EC50 values thus indicate intrinsic activities or functional activities of these compounds. The value of % maximum stimulation indicates whether a compound is a partial agonist or full agonist. Generally, a value greater than 80% is considered as a full agonist and anything less than 80% is considered as a partial agonist.
(Incorporation of labelled thymidine or its analogues reports DNA synthesis.)

The target in the next test is T2, 5HT2C receptor (Homo sapiens, UniProt P28335).
T2 construct: expressed in transfected cells
T2 sequence (P28335 33-458): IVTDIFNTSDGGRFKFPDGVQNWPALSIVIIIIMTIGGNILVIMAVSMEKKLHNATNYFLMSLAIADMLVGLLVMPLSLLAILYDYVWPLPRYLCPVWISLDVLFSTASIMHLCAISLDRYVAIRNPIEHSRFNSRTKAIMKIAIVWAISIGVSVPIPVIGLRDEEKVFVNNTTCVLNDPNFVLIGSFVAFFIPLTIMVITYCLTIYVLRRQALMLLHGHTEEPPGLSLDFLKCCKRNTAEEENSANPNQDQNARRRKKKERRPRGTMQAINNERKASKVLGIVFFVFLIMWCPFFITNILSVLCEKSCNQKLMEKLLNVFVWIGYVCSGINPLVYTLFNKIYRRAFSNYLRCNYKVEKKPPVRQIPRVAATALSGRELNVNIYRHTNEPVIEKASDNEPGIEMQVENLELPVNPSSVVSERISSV
The test is described as follows: Binding affinity at cloned human 5HT2C receptor, [3H]Mesulergine.

For the next test, the target named is T3, D1 receptor (Homo sapiens, UniProt P21728).
T3 construct: expressed in transfected cells; host or cells: LHD1 cells
T3 sequence (P21728 whole entry): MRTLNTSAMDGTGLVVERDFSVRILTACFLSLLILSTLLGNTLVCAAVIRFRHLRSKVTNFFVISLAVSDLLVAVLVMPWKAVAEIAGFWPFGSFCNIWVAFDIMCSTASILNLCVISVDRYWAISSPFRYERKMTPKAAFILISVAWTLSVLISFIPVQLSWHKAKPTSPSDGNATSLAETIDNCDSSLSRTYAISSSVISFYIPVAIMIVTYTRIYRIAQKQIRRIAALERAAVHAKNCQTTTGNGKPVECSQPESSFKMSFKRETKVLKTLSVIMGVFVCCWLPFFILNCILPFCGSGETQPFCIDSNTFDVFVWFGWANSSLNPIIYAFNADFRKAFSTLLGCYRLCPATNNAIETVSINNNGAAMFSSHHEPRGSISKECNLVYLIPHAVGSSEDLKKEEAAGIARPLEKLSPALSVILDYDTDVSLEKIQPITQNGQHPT
The test is described as follows: Binding affinity at cloned human D1 receptor, [3H]SCH23390 (LHD1 cells). The method, then:
LHD1 cells (human receptor) are grown and prepared as described for the HA7 cells as described hereafter. The final pellet is resuspended at 5 mg protein/80 ml in 50 mM Tris-HCl containing 120 mM of NaCl, 5 mM of KCl, 2 mM of CaCl2, and 1 mM of MgCl2, pH 7.4. To wells containing 100 μl of test drug or buffer and […] of [^3H]SCH 23390 (0.18 nM final conc.), is added 0.8 ml of cell homogenate (0.05 mg protein/well), and the plates are incubated at […] for 60 min. Nonspecific binding is determined with 1 μM of SCH 23390.

For a further test, the target named is D3 receptor (Homo sapiens, UniProt P35462). The test is described as follows: Binding affinity at cloned human D3 receptor, [3H]YM-09151-2 (CHOp-D3 cells). Further details: expressed in transfected cells; host or cells: CHOp-D3 cells. To be noted: for Ki: cloned human D3; for D2/D3: ratio of Ki D2 to Ki D3, [3H]YM-09151-2 protocol of Table 4. The method, then:
CHOp-cells (human receptors) are grown to confluence in a minimum essential medium (α MEM) containing 10% fetal calf serum, 0.05% pen-strep, and 600 μg/ml of G418. The cells are scraped from the 100 by 20 mm plates and centrifuged at 500. g for 5 min. The pellet is homogenized by polytron in 50 mM Tris-HCl, pH 7.7, and centrifuged at 27,000·G for 12 min. The pellet is resuspended in 50 mM Tris, D2 at 5 mg protein/ml, D3 at 1 mg protein/ml, and stored at −70° C. in 1-ml aliquots.
On the day of the experiment, CHOp-D2 or CHOp-D3 cells are thawed, resuspended in 50 mM Tris, and centrifuged at 27,000·G for 12 min. The pellet is then resuspended at 5 mg protein/80 ml (D2) and 1 mg protein/80 ml (D3) in 50 mM Tris containing 120 mM of NaCl, 5 mM of KCl, 1.5 mM of CaCl2, 4 mM of MgCl2, and 1 mM of EDTA, pH 7.4. […] Nonspecific binding is determined with 1 mM of chlorpromazine. The plates are incubated at 25° C. for 60 min before filtration and counted as usual. The filters are soaked in 0.1% PEI before filtering.

A further test has as its target T4, 5HT1A receptor (Homo sapiens, UniProt P08908).
T4 construct: expressed in transfected cells; host or cells: HA7 cells
T4 sequence (P08908 1-422): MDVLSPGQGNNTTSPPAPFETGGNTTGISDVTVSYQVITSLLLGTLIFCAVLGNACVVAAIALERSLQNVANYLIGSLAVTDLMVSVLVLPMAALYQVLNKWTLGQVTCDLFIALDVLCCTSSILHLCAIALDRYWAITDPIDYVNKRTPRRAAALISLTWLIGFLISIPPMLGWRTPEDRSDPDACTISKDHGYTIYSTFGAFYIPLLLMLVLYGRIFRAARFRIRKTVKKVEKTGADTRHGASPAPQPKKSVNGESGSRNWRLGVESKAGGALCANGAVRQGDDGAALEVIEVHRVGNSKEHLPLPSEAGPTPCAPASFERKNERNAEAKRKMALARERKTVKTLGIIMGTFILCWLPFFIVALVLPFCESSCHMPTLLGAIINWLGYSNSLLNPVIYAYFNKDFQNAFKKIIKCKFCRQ
Description: Binding affinity at cloned human 5HT1A receptor, [3H]8-OH-DPAT (HA7 cells). The method, then:
HA7 cells (human receptor) are grown to confluence in DMEM containing 10% fetal calf serum, 0.05% penicillin-streptomycin (pen-strep), and […] of G418. The cells are scraped from the 100 by 20 mm plates and centrifuged at 500·G for 5 min. The pellet is homogenized in 50 mM Tris-HCl, pH 7.7, with a polytron, centrifuged at 27,000·G and resuspended at 10 mg protein/ml in the same buffer. The homogenate is then stored at −70° C. in 1-ml aliquots.
The thawed cells are washed once and resuspended at 10 mg protein/80 ml in 25 mM Tris-HCl containing 100 μM of ascorbic acid and 10 mM of nialamide at pH 7.4. The assay is performed in triplicate in a 96-well plate. To 100 μl of [^3H]8-OH-DPAT (0.5 nM final conc), […] of test compound or buffer and 0.8 ml of cell homogenate (0.1 mg protein/well) is added to each well by a Tomtec Quadra 96. Nonspecific binding is defined using 1 μM dihydroergotamine. The plates are incubated at 25° C. for 60 min, then filtered. The incubation is terminated by rapid filtration through glass fiber filter paper on a Tomtec cell harvester. The filters are washed four times with ice-cold 50 mM Tris-HCl, pH 7.7, dried overnight, bagged with 10 ml scintillation cocktail before counting for 2 min. on a Wallac Betaplate 1205 liquid scintillation counter.

A further test deals with T5, D2L receptor (Homo sapiens, UniProt P14416).
T5 construct: expressed in transfected cells; host or cells: HEK cells
T5 sequence (P14416 whole entry): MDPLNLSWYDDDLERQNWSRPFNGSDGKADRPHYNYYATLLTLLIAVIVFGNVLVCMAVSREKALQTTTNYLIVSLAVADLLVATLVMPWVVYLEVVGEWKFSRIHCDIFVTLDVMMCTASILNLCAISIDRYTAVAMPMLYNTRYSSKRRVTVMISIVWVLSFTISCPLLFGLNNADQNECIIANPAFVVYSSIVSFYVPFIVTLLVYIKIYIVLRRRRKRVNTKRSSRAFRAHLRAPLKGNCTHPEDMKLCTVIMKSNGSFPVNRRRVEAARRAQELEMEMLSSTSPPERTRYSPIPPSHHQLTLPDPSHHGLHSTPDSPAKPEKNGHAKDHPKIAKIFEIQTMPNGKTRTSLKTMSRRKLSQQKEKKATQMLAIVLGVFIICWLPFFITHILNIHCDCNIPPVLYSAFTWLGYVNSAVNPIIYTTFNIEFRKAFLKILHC
The test is described as follows: Inhibition constants for binding to cloned D2L receptor expressed in HEK cells, [3H]spiperone. The method, then:
Inhibition constants for binding to cloned D2L and D3 receptors expressed in HEK cells by displacing [^3H] spiperone were measured for several compounds.

Another test addresses T6, 5HT2A receptor (Homo sapiens, UniProt P28223).
T6 construct: expressed in transfected cells
Description: Binding affinity at cloned human 5HT2A receptor, [3H]Ketanserin.

SMILES strings stand for the structures. A value given as a limit tells only on which side of the number the result lay.

The values that follow come from US8227604B2, “Hybrid 2-aminotetralin and aryl-substituted piperazine compounds and their use in altering CNS activity” (Wayne State University, priority 2001, dated 2012).

T1 sequence (P14416 whole entry): as above
D3 receptor, sequence (P35462 whole entry): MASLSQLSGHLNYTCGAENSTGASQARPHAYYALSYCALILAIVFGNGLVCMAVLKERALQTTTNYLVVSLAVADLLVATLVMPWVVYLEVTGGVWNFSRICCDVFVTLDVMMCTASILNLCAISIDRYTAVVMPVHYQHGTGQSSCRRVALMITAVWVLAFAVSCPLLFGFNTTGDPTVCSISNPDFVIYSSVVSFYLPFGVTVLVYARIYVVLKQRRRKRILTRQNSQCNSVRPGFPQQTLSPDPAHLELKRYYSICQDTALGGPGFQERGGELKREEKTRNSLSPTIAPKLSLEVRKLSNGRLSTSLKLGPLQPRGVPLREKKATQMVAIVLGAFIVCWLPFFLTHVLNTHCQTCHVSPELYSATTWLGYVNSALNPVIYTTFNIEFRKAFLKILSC
T6 sequence (P28223 whole entry): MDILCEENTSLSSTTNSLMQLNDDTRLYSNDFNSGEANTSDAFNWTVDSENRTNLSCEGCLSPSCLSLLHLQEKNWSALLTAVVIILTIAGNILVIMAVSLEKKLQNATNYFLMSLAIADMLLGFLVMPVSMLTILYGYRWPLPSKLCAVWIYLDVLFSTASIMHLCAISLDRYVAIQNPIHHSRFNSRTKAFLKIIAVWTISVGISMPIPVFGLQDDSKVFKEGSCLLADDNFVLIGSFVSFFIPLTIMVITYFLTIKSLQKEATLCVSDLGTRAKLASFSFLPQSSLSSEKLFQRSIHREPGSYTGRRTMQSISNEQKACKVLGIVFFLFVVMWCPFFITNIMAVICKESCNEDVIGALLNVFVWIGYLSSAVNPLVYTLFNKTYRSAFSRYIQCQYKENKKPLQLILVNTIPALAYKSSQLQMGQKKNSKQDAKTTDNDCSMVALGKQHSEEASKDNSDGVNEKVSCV

As usually defined, the EC50 is the midpoint of the concentration-response curve. A lower EC50 goes with an effect from little substance. One may read the Ki as the equilibrium dissociation constant of an inhibitor or competing ligand from its target. A lower Ki goes with tighter binding. As for `N#CCCCN(CCCCN1CCN(c2ccccc2)CC1)C1CCc2ccc(O)cc2C1` (stereo not drawn) [Compound 8, 7-Hydroxy-2-[N-butyonitrile-(N-(4-phenylpiperazin-1-yl)-butyl)amino]tetralin], the EC50 at D2 receptor was found to be 74.5 ± 32.9 nM. Also, the Emax at D2 receptor amounted to 54.1 ± 4.82%. Further, the Ki at 5HT2C receptor was > 10000 nM; on D1 receptor it was 3218 ± 7.77 nM; on D3 receptor it was 75.8 ± 6.29 nM; at 5HT1A receptor it was 88.31 ± 0.4 nM; at D2L receptor, 622 ± 102 nM; at 5HT2A receptor it was 701 ± 16.8 nM. Further, at D3 receptor, the D2/D3 was determined as 1.18.

For the compound `O=C(NCCCCN(CCCCN1CCN(c2ccccc2)CC1)C1CCc2ccc(O)cc2C1)c1ccccc1` (stereo not drawn) [Compound 10a, 7-Hydroxyl-2-[N-(4-benzoylaminobutyl)-(N-(4-phenylpiperazin-1-yl)-butyl)amino]tetralin], the EC50 on D2 receptor turned out to be 115 ± 20.2 nM. Also, the Emax at D2 receptor was found to be 44.9 ± 0.84%. The Ki at 5HT2C receptor is > 10000 nM; at D1 receptor, 3730 ± 272 nM; at D3 receptor it was 313 ± 6.47 nM; at 5HT1A receptor, 171 ± 32.2 nM; on D2L receptor it was 782 ± 42 nM; at 5HT2A receptor it was 1230 ± 217 nM. For the same compound, the D2/D3 at D3 receptor stood at 0.38.

`O=C(NCCN(CCCCN1CCN(c2ccccc2)CC1)C1CCc2ccc(O)cc2C1)c1ccccc1` (stereo not drawn) [Compound 10b, 7-Hydroxy-2-[N-(2-benzoylamino)ethyl-(N-(4-phenylpiperazin-1-yl)-butyl)amino]tetralin] displayed an EC50 at D2 receptor of 97.2 ± 47.7 nM. The Emax on D2 receptor is 27 ± 5.54%. Moreover, the Ki on 5HT2C receptor is > 10000 nM; on D1 receptor, 2950 ± 238 nM; on D3 receptor, 84.6 ± 1.55 nM; on 5HT1A receptor, 164 ± 27.5 nM; at D2L receptor, 354 ± 2 nM; at 5HT2A receptor, 287 ± 50.2 nM. In addition, at D3 receptor, the D2/D3 came out at 1.30.

`CCCN(CCCCN1CCN(c2ccccc2)CC1)C1CCc2ccc(O)cc2C1` (stereo not drawn) [Compound 15b, 7-Hydroxyl-2-[N-propyl-(N-(4-phenylpiperazin-1-yl)-butyl)amino]tetralin] showed a 50% effective concentration (EC50) on D2 receptor of 3.21 ± 0.46 nM. Also, on D2 receptor, the Emax was found to be 121 ± 26.1%. In addition, the Ki was > 10000 nM on 5HT2C receptor; 6120 ± 933 nM at D1 receptor; 3.47 ± 0.08 nM at D3 receptor; 18.5 ± 2.46 nM at 5HT1A receptor; 114 ± 8 nM on D2L receptor; 1780 ± 614 nM at 5HT2A receptor. In addition, at D3 receptor, the D2/D3 was 1.
